“Also recorded” adds a separate entry of the source. Like-named read-outs stand apart in the source and are kept apart here. Where a SMILES comes first, the peptide text is derived from it. Where no end group is shown, it is not given here. [ ]: non-standard residue; d: D form.

This is an account of results in US5235036A, “CRF analogs” (The Salk Institute for Biological Studies, priority 1991, dated 1993).

The subject of assay [1] is secretion of ACTH and β-END-LI. The assay is described as follows: in vivo testing: stimulation of the secretion of ACTH and β-END-LI. Conditions: test system not stated in the example. The procedure: (§1) The synthetic peptides [Ala^20 ]-oCRF and [Ala^39 ]-oCRF are examined for their effects on the secretion of ACTH and β-endorphin in vitro and also in vivo. The potency of synthetic oCRF analogs to stimulate the secretion of ACTH and β-endorphin by cultured rat pituitary cells is measured using the procedure as generally set forth in Endocrinology, 91, 562 (1972) and compared against synthetic oCRF. [Ala^20 ]-oCRF is considered to be about 2 to 4 times as potent as the native hormone. […] In vivo testing which can be carried out using the general procedure set forth in C. Rivier et al., Science.

Assay [2] is described as follows: lowering of blood pressure when injected peripherally. Conditions: e.g. intravenously. The assay is classed as in vivo.
In assay [3] the test system is ACTH and β-endorphin-like activities (β-END-LI). Conditions: in vitro and in vivo; background statement; cited from earlier work.
The conditions of assay [4]: background statement; mammals; cited from earlier work.
For assay [5], the system named is gastric acid production. Conditions: background statement; cited from earlier work.
In assay [6] the test system is cultured rat pituitary cells. The assay is described as follows: secretion of ACTH and β-endorphin by cultured rat pituitary cells, compared against synthetic oCRF. The assay is classed as cell-based. The procedure: as §1

“SEEPPISLDLTFHLLREVLAMARAEQLAQQAHSNRKLMEII [[Ala^20]-rCRF]”: the “biopotency / stimulation of the secretion of ACTH and β-END-LI” value (“biopotency / stimulation” below) in assay [1] was “biopotent and stimulates the secretion of ACTH and β-END-LI”. Further, the “lowering of blood pressure” value in assay [2] is “causes significant lowering of blood pressure”.

As for `CC[C@H](C)[C@H](NC(=O)[C@@H](NC(=O)[C@H](CCC(=O)O)NC(=O)[C@H](CCSC)NC(=O)[C@H](CC(C)C)NC(=O)[C@H](CCCCN)NC(=O)[C@H](CCCNC(=N)N)NC(=O)[C@H](CC(N)=O)NC(=O)[C@H](CO)NC(=O)[C@H](Cc1c[nH]cn1)NC(=O)[C@H](C)NC(=O)[C@H](CCC(N)=O)NC(=O)[C@H](CCC(N)=O)NC(=O)[C@H](C)NC(=O)[C@H](CC(C)C)NC(=O)[C@H](CCC(N)=O)NC(=O)[C@H](CCC(=O)O)NC(=O)[C@H](C)NC(=O)[C@H](CCCNC(=N)N)NC(=O)[C@H](C)NC(=O)[C@H](CCSC)NC(=O)[C@H](C)NC(=O)[C@H](CC(C)C)NC(=O)[C@@H](NC(=O)[C@H](CCC(=O)O)NC(=O)[C@H](CCCNC(=N)N)NC(=O)[C@H](CC(C)C)NC(=O)[C@H](CC(C)C)NC(=O)[C@H](Cc1c[nH]cn1)NC(=O)[C@@H](Cc1ccccc1)NC(=O)[C@@H](NC(=O)[C@H](CC(C)C)NC(=O)[C@H](CC(=O)O)NC(=O)[C@H](CC(C)C)NC(=O)[C@H](CO)NC(=O)[C@@H](NC(=O)[C@@H]1CCCN1C(=O)[C@@H]1CCCN1C(=O)[C@@H](N)CCC(=O)O)[C@@H](C)CC)[C@@H](C)O)C(C)C)[C@@H](C)CC)C(N)=O` [[D-Phe^12, Ala^20]-rCRF(3-41)] (H-EPPISLDLT[dF]HLLREVLAMARAEQLAQQAHSNRKLMEII-NH2), the “biopotency / stimulation” value in assay [1] is “biopotent”. In assay [2], the “lowering of blood pressure” value is listed as “causes significant lowering of blood pressure”.

Take “SQEPPISLDLTFHLLREVLAMTKADQLAQQAHSNRKLLAIA [[Ala^20,29]-oCRF]”: in assay [1], the “biopotency / stimulation” value was “biopotent”. Also, in assay [2], the “lowering of blood pressure” value was “lowers blood pressure”.

In the case of “Ser-Gln-Glu-Pro-Pro-Ile-Ser-Leu-Asp-Leu-Thr-Phe-His-Leu-Leu-Arg-Glu-Val-Leu-Glu-Met-Thr-Lys-Ala-Asp-Gln-Leu-Ala-Gln-Gln-Ala-His-Ser-Asn-Arg Lys-Leu-Leu-Asp-Ile-Ala (SQEPPISLDLTFHLLREVLEMTKADQLAQQAHSNRKLLDIA) [oCRF]”, the “stimulation of ACTH and β-endorphin secretion / β-END-LI” value in assay [3] was “stimulates the secretion of ACTH and β-endorphin; also recorded: stimulate ACTH and β-endorphin-like activities (β-END-LI) in vitro and in vivo”. For the same compound, the “lowering of blood pressure” value in assay [4] was “lowers blood pressure in mammals; also recorded: substantially lower blood pressure”. The gastric acid production entry in assay [5] was “inhibits gastric acid production”.

On to “SQEPPISLDLTFHLLREMLEMAKAEQEAEQAALNRLLLEEA [AHC]”, for which, in assay [3], the “stimulation of ACTH and β-endorphin secretion / β-END-LI” value is “stimulate ACTH and β-endorphin-like activities (β-END-LI) in vitro and in vivo”. Besides, the “lowering of blood pressure” value in assay [4] is “substantially lower blood pressure”.

For the compound “Ser-Glu-Glu-Pro-Pro-Ile-Ser-Leu-Asp-Leu-Thr-Phe-His-Leu-Leu-Arg-Glu-Val-Leu-Glu-Met-Ala-Arg-Ala-Glu-Gln-Leu-Ala-Gln-Gln-Ala-His-Ser-Asn-Arg -Lys-Leu-Met-Glu-Ile-Ile (SEEPPISLDLTFHLLREVLEMARAEQLAQQAHSNRKLMEII) [rCRF]”, the “stimulation of ACTH and β-endorphin secretion / β-END-LI” value in assay [3] is “stimulate ACTH and β-endorphin-like activities (β-END-LI) in vitro and in vivo”. Also, the “lowering of blood pressure” value in assay [4] is given as “substantially lower blood pressure”.

For the compound “SEEPPISLDLTFHLLREVLEMARAEQLAQQAHSNRKLMAII [[Ala^39 -rCRF]”, the “biopotency / stimulation” value in assay [1] is “biopotent, stimulates the secretion of ACTH and β-END-LI”. In addition, the “lowering of blood pressure” value in assay [2] is listed as “causes significant lowering of blood pressure”.

On to “SQEPPISLDLTFHLLREVLAMTKADQLAQQAHSNRKLLDIA [[Ala^20]-oCRF]”, for which the “lowering of blood pressure” value in assay [2] is recorded as “a significant lowering of blood pressure”.

Regarding “SQEPPISLDLTFHLLREVLEMTKADQLAQQAHSNRKLLAIA [[Ala^39]-oCRF]”, the “increase in biopotency in vitro over the native hormone” value in assay [6] is on record as approximately 85%. Also, in assay [2], the “lowering of blood pressure” value is reported as “a significant lowering of blood pressure”.
